From the supplement of paper PMC10307832

Experiments:
Test in all cases: relative viability (nuclei count vs DMSO), 5 days (fraction); higher = more cells survive
Olaparib + Lapatinib = compound: O=C(c1cc(Cc2n[nH]c(=O)c3ccccc23)ccc1F)N1CCN(C(=O)C2CC2)CC1 [Olaparib] + CS(=O)(=O)CCNCc1ccc(-c2ccc3ncnc(Nc4ccc(OCc5cccc(F)c5)c(Cl)c4)c3c2)o1 [Lapatinib] (partner 2 µM)
In short: (§1)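 Lung cancer cell lines were seeded in 1536-well plates and dosed by pin tool the next day, with either a single drug or a fixed anchor-drug dose combined with five library-drug doses (not always all listed) spaced in √10 steps. Five days later, one step fixed the cells and stained their nuclei (final 0.05% Triton X-100, 1% formaldehyde, 1 ug/ml Hoechst), and nuclei were counted on 4× images. Relative viability is the nuclei count in treated wells divided by the count in vehicle wells, and each value is the median of duplicate plates.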

Crizotinib + Foretinib = compound: C[C@@H](Oc1cc(-c2cnn(C3CCNCC3)c2)cnc1N)c1c(Cl)ccc(F)c1Cl [Crizotinib] + COc1cc2c(Oc3ccc(NC(=O)C4(C(=O)Nc5ccc(F)cc5)CC4)cc3F)ccnc2cc1OCCCN1CCOCC1 [Foretinib] (partner 0.25 µM)
In short: as §1

Crizotinib + Pemetrexed = compound: C[C@@H](Oc1cc(-c2cnn(C3CCNCC3)c2)cnc1N)c1c(Cl)ccc(F)c1Cl [Crizotinib] + Nc1nc2[nH]cc(CCc3ccc(C(=O)N[C@@H](CCC(=O)O)C(=O)O)cc3)c2c(=O)[nH]1 [Pemetrexed] (partner 0.2 µM)
In short: as §1

Olaparib + Linsitinib = compound: O=C(c1cc(Cc2n[nH]c(=O)c3ccccc23)ccc1F)N1CCN(C(=O)C2CC2)CC1 [Olaparib] + C[C@]1(O)C[C@@H](c2nc(-c3ccc4ccc(-c5ccccc5)nc4c3)c3c(N)nccn32)C1 [Linsitinib] (partner 1 µM)
In short: as §1

NCI-H596
relative viability (Olaparib + Lapatinib; first compound 0.08 µM): 1.09 | relative viability (Olaparib + Lapatinib; first compound 0.253 µM): 0.988 | relative viability (Olaparib + Lapatinib; first compound 2.53 µM): 1.06 | relative viability (Olaparib + Lapatinib; first compound 8 µM): 0.73 | relative viability (Crizotinib + Foretinib; first compound 0.01 µM): 0.854 | relative viability (Crizotinib + Foretinib; first compound 0.03162 µM): 0.898 | relative viability (Crizotinib + Foretinib; first compound 0.1 µM): 0.85 | relative viability (Crizotinib + Foretinib; first compound 0.3162 µM): 1.11 | relative viability (Crizotinib + Foretinib; first compound 1 µM): 0.835 | relative viability (Crizotinib + Pemetrexed; first compound 0.01 µM): 0.462 | relative viability (Crizotinib + Pemetrexed; first compound 0.03162 µM): 0.48 | relative viability (Crizotinib + Pemetrexed; first compound 0.1 µM): 0.509 | relative viability (Crizotinib + Pemetrexed; first compound 0.3162 µM): 0.458 | relative viability (Crizotinib + Pemetrexed; first compound 1 µM): 0.509 | relative viability (Olaparib + Linsitinib; first compound 0.08 µM): 1.04 | relative viability (Olaparib + Linsitinib; first compound 0.253 µM): 0.856 | relative viability (Olaparib + Linsitinib; first compound 2.53 µM): 0.923 | relative viability (Olaparib + Linsitinib; first compound 8 µM): 0.744

COR-L 105
relative viability (Olaparib + Lapatinib; first compound 0.08 µM): 0.341 | relative viability (Olaparib + Lapatinib; first compound 0.253 µM): 0.348 | relative viability (Olaparib + Lapatinib; first compound 2.53 µM): 0.363 | relative viability (Olaparib + Lapatinib; first compound 8 µM): 0.317 | relative viability (Crizotinib + Foretinib; first compound 0.01 µM): 1.07 | relative viability (Crizotinib + Foretinib; first compound 0.03162 µM): 1.02 | relative viability (Crizotinib + Foretinib; first compound 0.1 µM): 1.12 | relative viability (Crizotinib + Foretinib; first compound 0.3162 µM): 0.797 | relative viability (Crizotinib + Foretinib; first compound 1 µM): 1.15 | relative viability (Crizotinib + Pemetrexed; first compound 0.01 µM): 1.04 | relative viability (Crizotinib + Pemetrexed; first compound 0.03162 µM): 1.16 | relative viability (Crizotinib + Pemetrexed; first compound 0.1 µM): 1 | relative viability (Crizotinib + Pemetrexed; first compound 0.3162 µM): 1.24 | relative viability (Crizotinib + Pemetrexed; first compound 1 µM): 1.07 | relative viability (Olaparib + Linsitinib; first compound 0.08 µM): 1.03 | relative viability (Olaparib + Linsitinib; first compound 0.253 µM): 0.804 | relative viability (Olaparib + Linsitinib; first compound 2.53 µM): 0.706 | relative viability (Olaparib + Linsitinib; first compound 8 µM): 0.591

NCI-H322M
relative viability (Olaparib + Lapatinib; first compound 0.08 µM): 0.576 | relative viability (Olaparib + Lapatinib; first compound 0.253 µM): 0.597 | relative viability (Olaparib + Lapatinib; first compound 2.53 µM): 0.599 | relative viability (Olaparib + Lapatinib; first compound 8 µM): 0.491 | relative viability (Crizotinib + Foretinib; first compound 0.01 µM): 0.852 | relative viability (Crizotinib + Foretinib; first compound 0.03162 µM): 1.04 | relative viability (Crizotinib + Foretinib; first compound 0.1 µM): 0.947 | relative viability (Crizotinib + Foretinib; first compound 0.3162 µM): 1.09 | relative viability (Crizotinib + Foretinib; first compound 1 µM): 0.889 | relative viability (Crizotinib + Pemetrexed; first compound 0.03162 µM): 0.656 | relative viability (Crizotinib + Pemetrexed; first compound 0.1 µM): 0.593 | relative viability (Crizotinib + Pemetrexed; first compound 0.3162 µM): 0.649 | relative viability (Crizotinib + Pemetrexed; first compound 1 µM): 0.656 | relative viability (Olaparib + Linsitinib; first compound 0.08 µM): 0.819 | relative viability (Olaparib + Linsitinib; first compound 0.253 µM): 0.879 | relative viability (Olaparib + Linsitinib; first compound 2.53 µM): 0.979 | relative viability (Olaparib + Linsitinib; first compound 8 µM): 0.84

HCC-827
relative viability (Olaparib + Lapatinib; first compound 0.08 µM): 0.239 | relative viability (Olaparib + Lapatinib; first compound 0.253 µM): 0.202 | relative viability (Olaparib + Lapatinib; first compound 2.53 µM): 0.194 | relative viability (Olaparib + Lapatinib; first compound 8 µM): 0.176 | relative viability (Crizotinib + Foretinib; first compound 0.01 µM): 0.959 | relative viability (Crizotinib + Foretinib; first compound 0.03162 µM): 0.967 | relative viability (Crizotinib + Foretinib; first compound 0.1 µM): 0.937 | relative viability (Crizotinib + Foretinib; first compound 0.3162 µM): 0.971 | relative viability (Crizotinib + Foretinib; first compound 1 µM): 1.05 | relative viability (Crizotinib + Pemetrexed; first compound 0.01 µM): 0.268 | relative viability (Crizotinib + Pemetrexed; first compound 0.03162 µM): 0.183 | relative viability (Crizotinib + Pemetrexed; first compound 0.1 µM): 0.267 | relative viability (Crizotinib + Pemetrexed; first compound 0.3162 µM): 0.274 | relative viability (Crizotinib + Pemetrexed; first compound 1 µM): 0.261 | relative viability (Olaparib + Linsitinib; first compound 0.08 µM): 0.899 | relative viability (Olaparib + Linsitinib; first compound 0.253 µM): 0.886 | relative viability (Olaparib + Linsitinib; first compound 2.53 µM): 0.922 | relative viability (Olaparib + Linsitinib; first compound 8 µM): 0.774

NCI-H1651
relative viability (Olaparib + Lapatinib; first compound 0.08 µM): 0.712 | relative viability (Olaparib + Lapatinib; first compound 0.253 µM): 0.752 | relative viability (Olaparib + Lapatinib; first compound 2.53 µM): 0.628 | relative viability (Olaparib + Lapatinib; first compound 8 µM): 0.27 | relative viability (Crizotinib + Foretinib; first compound 0.01 µM): 0.615 | relative viability (Crizotinib + Foretinib; first compound 0.03162 µM): 0.725 | relative viability (Crizotinib + Foretinib; first compound 0.1 µM): 0.843 | relative viability (Crizotinib + Foretinib; first compound 0.3162 µM): 0.864 | relative viability (Crizotinib + Foretinib; first compound 1 µM): 0.902 | relative viability (Crizotinib + Pemetrexed; first compound 0.01 µM): 0.545 | relative viability (Crizotinib + Pemetrexed; first compound 0.03162 µM): 0.369 | relative viability (Crizotinib + Pemetrexed; first compound 0.1 µM): 0.65 | relative viability (Crizotinib + Pemetrexed; first compound 0.3162 µM): 0.378 | relative viability (Crizotinib + Pemetrexed; first compound 1 µM): 0.535 | relative viability (Olaparib + Linsitinib; first compound 0.08 µM): 1.01 | relative viability (Olaparib + Linsitinib; first compound 0.253 µM): 0.821 | relative viability (Olaparib + Linsitinib; first compound 2.53 µM): 0.679 | relative viability (Olaparib + Linsitinib; first compound 8 µM): 0.297

EKVX
relative viability (Olaparib + Lapatinib; first compound 0.08 µM): 0.228 | relative viability (Olaparib + Lapatinib; first compound 0.253 µM): 0.162 | relative viability (Olaparib + Lapatinib; first compound 2.53 µM): 0.209 | relative viability (Olaparib + Lapatinib; first compound 8 µM): 0.213 | relative viability (Crizotinib + Foretinib; first compound 0.01 µM): 0.772 | relative viability (Crizotinib + Foretinib; first compound 0.03162 µM): 0.752 | relative viability (Crizotinib + Foretinib; first compound 0.1 µM): 0.717 | relative viability (Crizotinib + Foretinib; first compound 0.3162 µM): 0.444 | relative viability (Crizotinib + Foretinib; first compound 1 µM): 0.991 | relative viability (Crizotinib + Pemetrexed; first compound 0.01 µM): 0.362 | relative viability (Crizotinib + Pemetrexed; first compound 0.03162 µM): 0.414 | relative viability (Crizotinib + Pemetrexed; first compound 0.1 µM): 0.404 | relative viability (Crizotinib + Pemetrexed; first compound 0.3162 µM): 0.383 | relative viability (Crizotinib + Pemetrexed; first compound 1 µM): 0.327 | relative viability (Olaparib + Linsitinib; first compound 0.08 µM): 1.38 | relative viability (Olaparib + Linsitinib; first compound 0.253 µM): 0.91 | relative viability (Olaparib + Linsitinib; first compound 2.53 µM): 1.01 | relative viability (Olaparib + Linsitinib; first compound 8 µM): 1.06

201T
relative viability (Olaparib + Lapatinib; first compound 0.08 µM): 1.06 | relative viability (Olaparib + Lapatinib; first compound 0.253 µM): 0.973 | relative viability (Olaparib + Lapatinib; first compound 2.53 µM): 0.939 | relative viability (Olaparib + Lapatinib; first compound 8 µM): 1 | relative viability (Crizotinib + Foretinib; first compound 0.01 µM): 0.982 | relative viability (Crizotinib + Foretinib; first compound 0.03162 µM): 1.12 | relative viability (Crizotinib + Foretinib; first compound 0.1 µM): 1.09 | relative viability (Crizotinib + Foretinib; first compound 0.3162 µM): 1.13 | relative viability (Crizotinib + Foretinib; first compound 1 µM): 1.14 | relative viability (Crizotinib + Pemetrexed; first compound 0.01 µM): 0.296 | relative viability (Crizotinib + Pemetrexed; first compound 0.03162 µM): 0.279 | relative viability (Crizotinib + Pemetrexed; first compound 0.1 µM): 0.32 | relative viability (Crizotinib + Pemetrexed; first compound 0.3162 µM): 0.324 | relative viability (Crizotinib + Pemetrexed; first compound 1 µM): 0.331 | relative viability (Olaparib + Linsitinib; first compound 0.08 µM): 1.04 | relative viability (Olaparib + Linsitinib; first compound 0.253 µM): 1.01 | relative viability (Olaparib + Linsitinib; first compound 2.53 µM): 1.04 | relative viability (Olaparib + Linsitinib; first compound 8 µM): 1.01

NCI-H2228
relative viability (Olaparib + Lapatinib; first compound 0.08 µM): 1.28 | relative viability (Olaparib + Lapatinib; first compound 0.253 µM): 0.879 | relative viability (Olaparib + Lapatinib; first compound 2.53 µM): 0.835 | relative viability (Olaparib + Lapatinib; first compound 8 µM): 0.765 | relative viability (Crizotinib + Foretinib; first compound 0.01 µM): 0.872 | relative viability (Crizotinib + Foretinib; first compound 0.03162 µM): 0.997 | relative viability (Crizotinib + Foretinib; first compound 0.1 µM): 0.699 | relative viability (Crizotinib + Foretinib; first compound 0.3162 µM): 0.81 | relative viability (Crizotinib + Foretinib; first compound 1 µM): 0.434 | relative viability (Crizotinib + Pemetrexed; first compound 0.01 µM): 0.338 | relative viability (Crizotinib + Pemetrexed; first compound 0.03162 µM): 0.324 | relative viability (Crizotinib + Pemetrexed; first compound 0.1 µM): 0.296 | relative viability (Crizotinib + Pemetrexed; first compound 0.3162 µM): 0.352 | relative viability (Crizotinib + Pemetrexed; first compound 1 µM): 0.317 | relative viability (Olaparib + Linsitinib; first compound 0.08 µM): 0.686 | relative viability (Olaparib + Linsitinib; first compound 0.253 µM): 0.629 | relative viability (Olaparib + Linsitinib; first compound 2.53 µM): 0.698 | relative viability (Olaparib + Linsitinib; first compound 8 µM): 0.434

NCI-H2009
relative viability (Olaparib + Lapatinib; first compound 0.08 µM): 0.934 | relative viability (Olaparib + Lapatinib; first compound 0.253 µM): 0.975 | relative viability (Olaparib + Lapatinib; first compound 2.53 µM): 0.884 | relative viability (Olaparib + Lapatinib; first compound 8 µM): 0.606 | relative viability (Crizotinib + Foretinib; first compound 0.01 µM): 1.21 | relative viability (Crizotinib + Foretinib; first compound 0.03162 µM): 1.17 | relative viability (Crizotinib + Foretinib; first compound 0.1 µM): 1.13 | relative viability (Crizotinib + Foretinib; first compound 0.3162 µM): 1.19 | relative viability (Crizotinib + Foretinib; first compound 1 µM): 1.23 | relative viability (Crizotinib + Pemetrexed; first compound 0.01 µM): 1.02 | relative viability (Crizotinib + Pemetrexed; first compound 0.03162 µM): 1.05 | relative viability (Crizotinib + Pemetrexed; first compound 0.1 µM): 0.974 | relative viability (Crizotinib + Pemetrexed; first compound 0.3162 µM): 0.957 | relative viability (Crizotinib + Pemetrexed; first compound 1 µM): 0.989 | relative viability (Olaparib + Linsitinib; first compound 0.08 µM): 1.28 | relative viability (Olaparib + Linsitinib; first compound 0.253 µM): 1.17 | relative viability (Olaparib + Linsitinib; first compound 2.53 µM): 1.09 | relative viability (Olaparib + Linsitinib; first compound 8 µM): 0.928
